Measured values taken from PubChem BioAssay (NCI).
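1) Cells in 96-well plates. 2) Compound, 48 h, 5 concentrations. 3) Linear interpolation between surrounding doses. 4) Unreached endpoint = highest concentration. Abbreviation: GI50, concentration required for 50% inhibition of growth. TGI marks complete inhibition of growth.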

How the values were obtained:
Assay in all cases: DTP human tumour cell line panel, 48 h
ACHN renal = test system: ACHN renal
CCRF-CEM leukemia = test system: CCRF-CEM leukemia
HOP-62 NSCLC = test system: HOP-62 NSCLC
LOX IMVI melanoma = test system: LOX IMVI melanoma
MCF7 breast = test system: MCF7 breast
NCI/ADR-RES ovarian = test system: NCI/ADR-RES ovarian
EKVX NSCLC = test system: EKVX NSCLC
HCT-116 colon = test system: HCT-116 colon
HS 578T breast = test system: HS 578T breast
CAKI-1 renal = test system: CAKI-1 renal

SMILES | TGI (ACHN renal) [µM] | TGI (CCRF-CEM leukemia) [µM] | TGI (HOP-62 NSCLC) [µM] | TGI (LOX IMVI melanoma) [µM] | TGI (MCF7 breast) [µM] | TGI (NCI/ADR-RES ovarian) [µM] | TGI (EKVX NSCLC) [µM] | TGI (HCT-116 colon) [µM] | TGI (HS 578T breast) [µM] | TGI (CAKI-1 renal) [µM] | GI50 (ACHN renal) [µM] | GI50 (CCRF-CEM leukemia) [µM] | GI50 (HOP-62 NSCLC) [µM] | GI50 (LOX IMVI melanoma) [µM] | GI50 (MCF7 breast) [µM] | GI50 (NCI/ADR-RES ovarian) [µM] | GI50 (EKVX NSCLC) [µM] | GI50 (HCT-116 colon) [µM] | GI50 (HS 578T breast) [µM] | GI50 (CAKI-1 renal) [µM]
Nc1nc(Cl)cc(NC2(CO)CCC2)n1 | > 100 | > 100 | > 100 | > 100 | > 100 | > 100 | > 100 | > 100 | > 100 | > 100 |  |  |  |  |  |  |  |  |  | 
Cc1n[nH]c(=O)n1/N=C\c1ccccc1 | > 100 | > 100 | > 100 | > 100 | > 100 | > 100 | > 100 | > 100 | > 100 | > 100 |  |  |  |  |  |  |  |  |  | 
C/C=C1\CN(C(=O)OC(C)(C)C)C1C(=O)OC(C)(C)C (stereo not given) | > 100 | > 100 | > 100 | > 100 | > 100 | > 100 | > 100 | > 100 | > 100 | > 100 |  |  |  |  |  |  |  |  |  | 
CCOC(=O)Nc1ccc2c(c1)c(CCCCCCc1nc3ccccc3c3ccc(NC(=O)OCC)cc13)nc1ccccc12 | > 100 | > 100 | 64.2 | 42.5 | > 100 | > 100 | > 100 | > 100 | > 100 | > 100 |  |  |  |  |  |  |  |  |  | 
COc1ccc2c3c([nH]c2c1)CCN(CCCC(=O)c1ccc(F)cc1)C3 | 30.8 | 54.9 | 27 | 26.7 | 31.6 | 33.9 | 25.8 | 25 | 31.7 | 31.8 |  |  |  |  |  |  |  |  |  | 
Cc1cc(=O)n2nc(CCl)sc2n1 | 27.5 | 40.8 | 40.2 | 17.1 | 28.7 | 48 | 36 | 24.9 | 55.9 | 23.1 |  |  |  |  |  |  |  |  |  | 
c1csc(-c2ccsc2-c2cccs2)c1 | > 100 | > 100 | > 100 | > 100 | > 100 | > 100 | > 100 | > 100 | > 100 | > 100 |  |  |  |  |  |  |  |  |  | 
COc1cc(OC)cc(-c2n/c(=C\c3c(O)[nH]c4ccc(OC)cc34)cc3c2=Nc2ccccc2-3)c1 | > 100 | 12.2 | 34.1 | 12.8 | 3.41 | 18.7 | 80.9 | 3.16 | 47.7 | > 100 | > 100 | 2.78 | 15.6 | 3.1 | 1.4 | 3.66 | 25.2 | 1.67 | 16.1 | > 100
CC(C)=CCC/C(C)=C/COc1c2ccoc2cc2oc(=O)ccc12 | 83.8 | 50.2 | > 100 | 46.4 | 61.4 | > 100 | 72 | 85.4 | > 100 | > 100 |  |  |  |  |  |  |  |  |  | 
C=C(C)COC1CCCCO1 (stereo not given) | > 100 | > 100 | > 100 | > 100 | > 100 | > 100 | > 100 | > 100 | > 100 | > 100 |  |  |  |  |  |  |  |  |  | 
